Patent US20230339874A1, “PIPERAZINYL COMPOUNDS AND METHODS FOR TREATING NEMATODE INFECTIONS” (The Governing Council of the University of Toronto, priority 2020, published 2023)
Like-named read-outs stand apart in the source and are kept apart here.

Tests used:
[1] = test system: Danio rerio (zebrafish) embryos; test: Danio rerio (zebrafish) embryo abnormal developmental phenotype; type: in vivo
[2] = test system: Pristionchus pacificus young adult animals; test: Pristionchus pacificus young adult abnormal locomotory behaviour on solid agar; type: in vivo; details: read-out: P. pacificus, young adult 1 h any phene at 1 h (EC50 (μM))
[3] = test system: Heligmosomoides polygyrus larval stage 3 (L3) worms; type: in vivo; details: 72 h incubation, one replicate
C. elegans L3 larvae = C. elegans L3 larvae abnormal locomotory behaviour on solid agar; details: solid agar MYOB + E. coli OP50, mean of 4 replicates; for % C. elegans L3 larvae any phene 1 h (conc.): 1 h exposure; for % C. elegans L3 larvae any phene 6 h (conc.): 6 h exposure; for % C. elegans L3 larvae any phene 24 h (conc.): 24 h exposure
Procedure: 20 animals were scored after either 1, 6 or 24 hours of exposure to drug (as indicated) per replicate. […] Data are reported as the mean % of animals with abnormal phenotype over 4 independent replicates.

Strongyloides ratti L3 = type: in vivo; details: 72 h incubation, 1 replicate
[4] = read-out: D. rerio (zebrafish) any phenotype EC50 (μM)
[5] = 1 day post fertilization embryos through 48 h of development, tested at 15 and 3.75 μM, select compounds at 60 and 30 μM, read-out: D. rerio (zebrafish) any phenotype EC50
[6] = 1 h exposure, tested at 3.75, 15 and 60 μM, NA = not active, no phenotype at 60 μM

Row | SMILES | EC50 [1, 4] [µM] | EC50 ([2]; 1 h) [µM] | H. Polygyrus % lethality L3 25 μM [3] [%] | % C. elegans L3 larvae any phene 1 h (conc.) (C. elegans L3 larvae; 3.75 uM) [%] | % C. elegans L3 larvae any phene 6 h (conc.) (C. elegans L3 larvae; 3.75 uM) [%] | % C. elegans L3 larvae any phene 24 h (conc.) (C. elegans L3 larvae; 3.75 uM) [%] | % C. elegans L3 larvae any phene 1 h (conc.) (C. elegans L3 larvae; 15 uM) [%] | % C. elegans L3 larvae any phene 6 h (conc.) (C. elegans L3 larvae; 15 uM) [%] | % C. elegans L3 larvae any phene 24 h (conc.) (C. elegans L3 larvae; 15 uM) [%] | % C. elegans L3 larvae any phene 1 h (conc.) (C. elegans L3 larvae; 60 uM) [%] | % C. elegans L3 larvae any phene 6 h (conc.) (C. elegans L3 larvae; 60 uM) [%] | % C. elegans L3 larvae any phene 24 h (conc.) (C. elegans L3 larvae; 60 uM) [%] | S. ratti L3 % lethality 25 μM (Strongyloides ratti L3) [%] | EC50 [1, 5] [µM] | EC50 [2, 6] [µM]
1 | FC(F)(F)c1cccc(N2CCN(CC3CC4C=CC3C4)CC2)c1 (stereo not drawn) [VI-f] | 7.8 | 2.8 | 0 | 34.2 | 0.0 | 0.0 | 81.7 | 83.2 | 52.5 | 100.0 | 100.0 | 92.5 | 0 |  | 
2 | FC(F)(F)c1cccc(N2CCN(CC3CCCCC3)CC2)c1 [VI-g] | 29.3 |  | 11.6 | 9.2 | 0.0 | 0.0 | 65.0 | 21.7 | 0.0 | 94.2 | 54.2 | 1.7 | 0 |  | 
3 | O=C(c1ccc([N+](=O)[O-])cc1)N1CCN(C2CCCC2)CC1 [III-d] |  |  |  | 0.8 | 0.0 | 0.0 | 14.2 | 1.7 | 0.0 | 30.8 | 17.5 | 0.0 |  | > 15 | > 60
4 | O=C(C1CCC1)N1CCN(c2ccc(F)cc2)CC1 [III-c] |  |  |  | 0.0 | 0.0 | 0.0 | 10.0 | 0.0 | 0.0 | 27.5 | 15.0 | 0.0 |  | > 15 | > 60
5 | FC(F)(F)c1cccc(N2CCN(C3CCCCCC3)CC2)c1 [VI-h] | 7.8 |  | 0 | 64.2 | 0.0 | 0.0 | 100.0 | 37.5 | 25.0 | 100.0 | 100.0 | 62.5 | 0 |  | 
6 | O=[N+]([O-])c1cccc(CN2CCN(C3CCCCC3)CC2)c1 [II-a] |  | > 60 |  | 0.8 | 0.0 | 0.0 | 0.0 | 0.0 | 0.0 | 6.7 | 2.5 | 0.0 |  |  | 
7 | Fc1ccccc1N1CCN(C2CCCCCC2)CC1 [VI-j] | 21.1 | 41.5 | 35.4 | 25.8 | 0.8 | 0.0 | 69.2 | 12.5 | 0.0 | 100.0 | 41.7 | 9.2 | 66.7 |  | 
8 | CCN1CCN(CC2CCCCC2)CC1 [I-a] | > 15 | > 60 |  | 3.3 | 0.0 | 0.0 | 6.7 | 0.0 | 0.0 | 19.2 | 5.8 | 0.0 |  |  | 
9 | c1cc(N2CCN(CC3CCC3)CC2)ccn1 [IV-b] | > 15 |  |  | 4.2 | 0.0 | 0.0 | 21.7 | 0.8 | 0.0 | 30.0 | 4.2 | 1.7 |  |  | 
10 | O=[N+]([O-])c1ccc(CN2CCN(C3CCCC3)CC2)cc1 [II-b] |  | > 60 |  | 0.0 | 0.8 | 0.0 | 2.5 | 0.0 | 0.0 | 23.3 | 29.2 | 0.0 |  |  | 
11 | CC1CCC(N2CCN(c3cccc(Cl)c3)CC2)C1 (stereo not drawn) [VI-d] | 15 | 2.5 | 56.5 | 80.0 | 11.7 | 0.0 | 100.0 | 59.2 | 0.0 | 100.0 | 100.0 | 66.7 | 17.9 |  | 
12 | O=C(C1CCCC1)N1CCN(c2ccc([N+](=O)[O-])cc2)CC1 [III-b] |  |  |  | 0.0 | 0.0 | 0.0 | 0.0 | 0.0 | 0.0 | 9.2 | 8.3 | 0.0 |  | 7.8 | > 60
13 | c1cc(N2CCN(CC3CCCCC3)CC2)ccn1 [IV-a] | > 15 |  |  | 0.0 | 0.0 | 0.0 | 10.8 | 0.0 | 0.0 | 24.2 | 12.5 | 0.0 |  |  | 
